Measured values: PubChem BioAssay (NCI)
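1) Cells in 96-well plates. 2) Compound, 48 h, 5 concentrations. 3) Linear interpolation between surrounding doses. 4) Unreached endpoint = highest concentration. TGI denotes the concentration required for complete inhibition of growth.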

How the values were obtained:
Assay in all cases: NCI tumour cell line growth inhibition, 48 h
SN12K1 renal = test system: SN12K1 renal
P388 leukemia = test system: P388 leukemia
P388/ADR leukemia = test system: P388/ADR leukemia

Row | SMILES | TGI (SN12K1 renal) | TGI (P388 leukemia) | TGI (P388/ADR leukemia)
1 | CSc1nc(NC2OCC(O)C(O)C2O)c(N)c(=O)[nH]1 (stereo unspecified) | > 100 µM | > 100 µM | > 100 µM
2 | CC(=O)c1ccc2c(c1)c1c(C)c3c[n+](C)ccc3c(C)c1n2C | 13.7 µM | 4.68 µM | 21.6 µM
